Reference: patent US9156831B2, “Chemical compounds” (ASTRAZENECA AB, priority 2013, dated 2015)

Assays:
HCA7 = assay: Cell proliferation assay (MTS); assay type: cell-based, human
Procedure: (§2) The sensitivity of a panel of human cancer cell lines to the effects of compounds was determined in a standard proliferation assay.
(§3) Cells were plated in 96 well plates at densities of 1000-6000 cells per well in RPMI media containing 10% FBS. After incubation at 37° C. for 16 hours, various concentrations of compound were added to the assay plates. After incubation for an additional 72 h, the viable cells were determined by the addition of MTS reagent (Promega #3582) to each well for 2 h. […] The formazan product was then quantitated by absorbance at 490 nm, as an indicator of the relative number of live cells. In order to determine the GI50 (concentration at which growth of cells was inhibited by 50%) the relative number of cells present at the time of drug addition was determined by comparison with the MTS readout before the drug was added, and this value was subtracted from the 72 hr value of untreated cells as a measure of cell growth during the assay.

SNU1 = assay: Cell proliferation assay (MTS); assay type: cell-based, human
Procedure: (§4) The sensitivity of a panel of human cancer cell lines to the effects of compounds was determined in a standard proliferation assay. Cell lines were sourced through the AstraZeneca Cell Bank.
(§5) Cells were plated in 96 well plates at densities of 1000-6000 cells per well in RPMI media containing 10% FBS. After incubation at 37° C. for 16 hours, various concentrations of compound were added to the assay plates. After incubation for an additional 72 h, the viable cells were determined by the addition of MTS reagent (Promega #3582) to each well for 2 h. MTS is a tetrazolium salt that is bioreduced by metabolically active cells in the presence of an electron coupling reagent to formazan. The formazan product was then quantitated by absorbance at 490 nm, as an indicator of the relative number of live cells. In order to determine the GI50 (concentration at which growth of cells was inhibited by 50%) the relative number of cells present at the time of drug addition was determined by comparison with the MTS readout before the drug was added, and this value was subtracted from the 72 hr value of untreated cells as a measure of cell growth during the assay.

HCT15 = assay: Cell proliferation assay (MTS); assay type: cell-based, human
Procedure: as §2, §5

HCC1569 = assay: Cell proliferation assay (MTS); assay type: cell-based, human
Procedure: as §4, §3

HLE = assay: Cell proliferation assay (MTS); assay type: cell-based, human
Procedure: as §2, §3

NAMALWA = assay: Cell proliferation assay (MTS); assay type: cell-based, human
Procedure: as §2, §3

CMK = assay: Cell proliferation assay (MTS); assay type: cell-based, human
Procedure: as §2, §5

HCCC9810 = assay: Cell proliferation assay (MTS); assay type: cell-based, human
Procedure: as §2, §5

PC3 = assay: Cell proliferation assay (MTS); assay type: cell-based, human
Procedure: as §2, §5

MDAMB436 = assay: Cell proliferation assay (MTS); assay type: cell-based, human
Procedure: as §2, §5

IM95M = assay: Cell proliferation assay (MTS); assay type: cell-based, human
Procedure: as §4, §5

HT1376 = assay: Cell proliferation assay (MTS); assay type: cell-based, human
Procedure: as §4, §5

H322 = assay: Cell proliferation assay (MTS); assay type: cell-based, human
Procedure: as §2, §3

HCC70 xenograft = assay: Tumour growth inhibition, HCC70 xenograft model; assay type: in vivo, mouse; settings: Example 3 alone 25 mg/kg BID every day; FIG. 13
Procedure: HCC70 is breast tumour cell line which is deficient in PTEN gene expression. Female Swiss athymic nude mice (swiss nu/nu—AZUK) were transplanted subcutaneously with the breast ductal epithelial tumour cell line HCC70 (ATCC—CRL2315) cells. 1×10^6 cells in 50% matrigel (BD Bioscience) were injected s.c. on the left flank of the animals.
(§1) Animals were randomised into groups of 10-15 when tumours reached a volume of ˜200-300 mm^3 and treatment commenced. Animals were dosed for 3-4 weeks by peroral route, with compound in a suitable vehicle at defined doses and schedules. Tumours were measured two-three times weekly by caliper and volume of tumours calculated using elliptical formula (pi/6×width×width×length).

H596 = assay: Cell proliferation assay (MTS); assay type: cell-based, human
Procedure: as §2, §5

JEKO1 = assay: Cell proliferation assay (MTS); assay type: cell-based, human
Procedure: as §4, §5

H1793 = assay: Cell proliferation assay (MTS); assay type: cell-based, human
Procedure: as §2, §5

HX147 = assay: Cell proliferation assay (MTS); assay type: cell-based, human
Procedure: as §4, §5

SKMES1 = assay: Cell proliferation assay (MTS); assay type: cell-based, human
Procedure: as §2, §5

LOVO = assay: Cell proliferation assay (MTS); assay type: cell-based, human
Procedure: as §2, §5

PAMC82 = assay: Cell proliferation assay (MTS); assay type: cell-based, human
Procedure: as §4, §3

H522 = assay: Cell proliferation assay (MTS); assay type: cell-based, human
Procedure: as §2, §3

MCF7MDR+ = assay: Cell proliferation assay (MTS); assay type: cell-based, human
Procedure: as §4, §5

A2058 = assay: Cell proliferation assay (MTS); assay type: cell-based, human
Procedure: as §2, §5

AGS = assay: Cell proliferation assay (MTS); assay type: cell-based, human
Procedure: as §2, §5

MCF7 xenograft = assay: Tumour growth inhibition, MCF7 xenograft model; assay type: in vivo, mouse; settings: Example 3 alone 25 mg/kg twice daily every day; FIG. 12
Procedure: MCF7 is an estrogen receptor positive breast tumour cell line carrying a mutation in the PIKC3CA gene (E545K). […] SCID mice (AZ UK) were transplanted subcutaneously (s.c.) with human breast adenocarcinoma cell line MCF7 (ICRF London) to determine anti-tumour activity of PI3 kinase inhibitors. Mice were implanted with a 0.5 mg 21 day oestrogen pellet (Innovative Research of America) 24 hours prior to cell implantation. 5×10^6 cells in 50% matrigel (BD Bioscience) were injected s.c. on the left flank of the animals.
as §1

RAMOS = assay: Cell proliferation assay (MTS); assay type: cell-based, human
Procedure: as §2, §5

CALU6 = assay: Cell proliferation assay (MTS); assay type: cell-based, human
Procedure: as §4, §5

H838 = assay: Cell proliferation assay (MTS); assay type: cell-based, human
Procedure: as §2, §5

RERFLCAI = assay: Cell proliferation assay (MTS); assay type: cell-based, human
Procedure: as §2, §5

SNU761 = assay: Cell proliferation assay (MTS); assay type: cell-based, human
Procedure: as §2, §5

H526 = assay: Cell proliferation assay (MTS); assay type: cell-based, human
Procedure: as §2, §5

OCUM1 = assay: Cell proliferation assay (MTS); assay type: cell-based, human
Procedure: as §4, §5

SNU5 = assay: Cell proliferation assay (MTS); assay type: cell-based, human
Procedure: as §2, §3

HCC1954 = assay: Cell proliferation assay (MTS); assay type: cell-based, human
Procedure: as §2, §5

CCK81 = assay: Cell proliferation assay (MTS); assay type: cell-based, human
Procedure: as §2, §5

[1] = Homo sapiens, Stomach, PIK3CA WT
[2] = Homo sapiens, Breast, PIK3CA WT
[3] = Homo sapiens, Blood/lymph, PIK3CA WT
[4] = Homo sapiens, Stomach, PIK3CA MUT

Structure (SMILES): CCn1nc(C2CCN(C(=O)CCO)CC2)nc1-c1cnc(N)c(-c2nnc(C(C)(C)C)o2)n1 [Example 3, 1-(4-(5-(5-amino-6-(5-tert-butyl-1,3,4-oxadiazol-2-yl)pyrazin-2-yl)-1-ethyl-1H-1,2,4-triazol-3-yl)piperidin-1-yl)-3-hydroxypropan-1-one]
- Category (HCA7): Resistant (resistant (GI50>1.0 μM))
- GI50 (HCA7; Homo sapiens, HCA-7, Colon, PIK3CA WT): 15.5 µM
- Category (SNU1): Resistant (resistant (GI50>1.0 μM))
- GI50 (SNU1; [1]): 15 µM
- Category (HCT15): Resistant (resistant (GI50>1.0 μM))
- GI50 (HCT15; Homo sapiens, HCT-15, Colon, PIK3CA MUT): 7.27 µM
- Category (HCC1569): Resistant (resistant (GI50>1.0 μM))
- GI50 (HCC1569; [2]): 1370 nM
- Category (HLE): Resistant (resistant (GI50>1.0 μM))
- GI50 (HLE; Homo sapiens, Liver, PIK3CA WT): 13.5 µM
- Category (NAMALWA): Resistant (resistant (GI50>1.0 μM))
- GI50 (NAMALWA; [3]): 17.6 µM
- Category (CMK): Resistant (resistant (GI50>1.0 μM))
- GI50 (CMK; [3]): 28.9 µM
- Category (HCCC9810): Resistant (resistant (GI50>1.0 μM))
- GI50 (HCCC9810; Homo sapiens, Bile duct, PIK3CA WT): 10 µM
- Category (PC3): Resistant (resistant (GI50>1.0 μM))
- GI50 (PC3; Homo sapiens, PC-3, Prostate, PIK3CA WT): 3.83 µM
- Category (MDAMB436): Resistant (resistant (GI50>1.0 μM))
- GI50 (MDAMB436; Homo sapiens, MDA-MB-436, Breast, PIK3CA WT): 30 µM
- Category (IM95M): Sensitive (sensitive (GI50<=1.0 μM))
- GI50 (IM95M; [4]): 436 nM
- Category (HT1376): Resistant (resistant (GI50>1.0 μM))
- GI50 (HT1376; Homo sapiens, HT-1376, Bladder, PIK3CA WT): 8.2 µM
- Category (H322): Resistant (resistant (GI50>1.0 μM))
- GI50 (H322; Homo sapiens, NCI-H322, Lung, PIK3CA WT): 8.23 µM
- tumour growth (HCC70 xenograft): inhibited growth more strongly
- Category (H596): Sensitive (sensitive (GI50<=1.0 μM))
- GI50 (H596; Homo sapiens, NCI-H596, Lung, PIK3CA MUT): 302 nM
- Category (JEKO1): Sensitive (sensitive (GI50<=1.0 μM))
- GI50 (JEKO1; Homo sapiens, JeKo-1, Blood/lymph, PIK3CA WT): 499 nM
- Category (H1793): Resistant (resistant (GI50>1.0 μM))
- GI50 (H1793; Homo sapiens, NCI-H1793, Lung, PIK3CA WT): 7.33 µM
- Category (HX147): Resistant (resistant (GI50>1.0 μM))
- GI50 (HX147; Homo sapiens, Lung, PIK3CA WT): 30 µM
- Category (SKMES1): Resistant (resistant (GI50>1.0 μM))
- GI50 (SKMES1; Homo sapiens, SK-MES-1, Lung, PIK3CA WT): 19.5 µM
- Category (LOVO): Resistant (resistant (GI50>1.0 μM))
- GI50 (LOVO; Homo sapiens, Colon, PIK3CA WT): 18.6 µM
- Category (PAMC82): Resistant (resistant (GI50>1.0 μM))
- GI50 (PAMC82; [1]): 1370 nM
- Category (H522): Resistant (resistant (GI50>1.0 μM))
- GI50 (H522; Homo sapiens, NCI-H522, Lung, PIK3CA WT): 15.6 µM
- Category (MCF7MDR+): Resistant (resistant (GI50>1.0 μM))
- GI50 (MCF7MDR+; [2]): 14.5 µM
- Category (A2058): Resistant (resistant (GI50>1.0 μM))
- GI50 (A2058; Homo sapiens, Skin, PIK3CA WT): 30 µM
- Category (AGS): Resistant (resistant (GI50>1.0 μM))
- GI50 (AGS; [4]): 1410 nM
- tumour growth (MCF7 xenograft): caused some tumour regression
- Category (RAMOS): Resistant (resistant (GI50>1.0 μM))
- GI50 (RAMOS; [3]): 30 µM
- Category (CALU6): Resistant (resistant (GI50>1.0 μM))
- GI50 (CALU6; Homo sapiens, Calu-6, Lung, PIK3CA WT): 26.2 µM
- Category (H838): Resistant (resistant (GI50>1.0 μM))
- GI50 (H838; Homo sapiens, NCI-H838, Lung, PIK3CA WT): 30 µM
- GI50 (RERFLCAI; Homo sapiens, Lung, PIK3CA WT): 30 µM
- Category (RERFLCAI; RERFLCAI): Resistant (resistant (GI50>1.0 μM))
- Category (SNU761): Resistant (resistant (GI50>1.0 μM))
- GI50 (SNU761; Homo sapiens, Liver, PIK3CA WT): 18.5 µM
- Category (H526): Resistant (resistant (GI50>1.0 μM))
- GI50 (H526; Homo sapiens, NCI-H526, Lung, PIK3CA WT): 30 µM
- Category (OCUM1): Resistant (resistant (GI50>1.0 μM))
- GI50 (OCUM1; [1]): 2330 nM
- Category (SNU5): Resistant (resistant (GI50>1.0 μM))
- GI50 (SNU5; Homo sapiens, SNU-5, Stomach, PIK3CA WT): 21.2 µM
- Category (HCC1954): Sensitive (sensitive (GI50<=1.0 μM))
- GI50 (HCC1954; Homo sapiens, Breast, PIK3CA MUT): 879 nM
- Category (CCK81): Sensitive (sensitive (GI50<=1.0 μM))
- GI50 (CCK81; Homo sapiens, Colon, PIK3CA MUT): 803 nM
